Data on 33 molecules can be found in article PMC6792352, “Limited Chemical Structural Diversity Found to Modulate Thyroid Hormone Receptor in the Tox21 Chemical Library” (Environmental Health Perspectives, 2019).

This data set can be described thus: in vitro. The settings on record: rat, gh3-tre-luc cells.

Broadly, the CC50 is the concentration that lowers cell viability or growth by half. A high value points to lower toxicity to the cells. `CC(C)[C@H]1CC[C@H](C(=O)N[C@H](Cc2ccccc2)C(=O)O)CC1` [Nateglinide] showed a CC50 at 24 h (AC50 (uM) modified / 1000) of over 50 µM.

Where the note is “AC50 (uM) modified / 1000”, `CC(=O)Nc1c(I)c(C(=O)O)c(I)c(N(C)C(C)=O)c1I` [Metrizoate sodium] showed a cytotoxic concentration (CC50) at 24 h of over 50 µM.

In turn, `CC(=O)NC1(c2cccc(F)c2)CCN(CC[C@@]2(c3ccc(Cl)c(Cl)c3)CN(c3ccccc3)C(=O)CO2)CC1` [SAR102779] registered a CC50 at 24 h (AC50 (uM) modified / 1000) of 6.31 µM.

With `C=C(C)C(=O)OCC` [Ethyl methacrylate], where the note is “AC50 (uM) modified / 1000”, the cytotoxic concentration (CC50) at 24 h was over 100 µM.

For `CC[C@H](NC(=O)c1cc(F)ccc1NS(=O)(=O)c1cccc2cccnc12)c1ccccc1` [AVE3295], the half-maximal cytotoxic concentration (CC50) at 24 h (AC50 (uM) modified / 1000) is over 90 µM.

Regarding `CC(C)[C@H](C(=O)O[C@H](C#N)c1cccc(Oc2ccccc2)c1)c1ccc(Cl)cc1` [Esfenvalerate], the CC50 at 24 h (AC50 (uM) modified / 1000) was over 90 µM.

Turning to `CC(C)COC(=O)c1ccccc1` [Isobutyl benzoate], the CC50 at 24 h (AC50 (uM) modified / 1000) was over 90 µM.

For the setting “AC50 (uM) modified / 1000”, `CC(C)(c1cc(Br)c(OCCO)c(Br)c1)c1cc(Br)c(OCCO)c(Br)c1` displayed a half-maximal cytotoxic concentration (CC50) at 24 h of 44.3 µM.

With `COC(=O)NC(=S)Nc1ccccc1NC(=S)NC(=O)OC` [Thiophanate-methyl], the 50% cytotoxic concentration (CC50) at 24 h (AC50 (uM) modified / 1000) was over 90 µM.

`CCCC(=O)OCCc1ccccc1` [2-Phenylethyl butanoate]: the CC50 at 24 h (AC50 (uM) modified / 1000) was over 90 µM.

In the case of `O=Cc1ccc([N+](=O)[O-])cc1` [4-Nitrobenzaldehyde], for the setting “AC50 (uM) modified / 1000”, the half-maximal cytotoxic concentration (CC50) at 24 h is over 90 µM.

In the case of `CNC(=O)OCc1cccc(COC(=O)NC)n1` [Pyricarbate], the CC50 at 24 h (AC50 (uM) modified / 1000) is over 50 µM.

Where the note is “AC50 (uM) modified / 1000”, `CN1C(=O)C(O)N=C(c2ccccc2)c2cc(Cl)ccc21` (stereo not drawn) [Temazepam] showed a CC50 at 24 h of over 90 µM.

As to `COCCOCCOCCOC` [Triethylene glycol dimethyl ether], the CC50 at 24 h (AC50 (uM) modified / 1000) was over 90 µM.

Take `CSCC[C@H](NC(=O)[C@H](Cc1c[nH]c2ccccc12)NC(=O)CCNC(=O)OC(C)(C)C)C(=O)N[C@@H](CC(=O)O)C(=O)N[C@@H](Cc1ccccc1)C(N)=O` [Pentagastrin]: for the setting “AC50 (uM) modified / 1000”, the CC50 at 24 h was over 50 µM.

Turning to `C=C(C)OC(C)=O` [Isopropenyl acetate], the CC50 at 24 h (AC50 (uM) modified / 1000) was over 90 µM.

`C/C=C/C=N/NC(=O)c1ccncc1` [Crotoniazide]: the CC50 at 24 h (AC50 (uM) modified / 1000) is over 50 µM.

As to `O=C(CC(=O)C(F)(F)F)c1ccccc1` [4,4,4-Trifluoro-1-phenyl-1,3-butanedione], the CC50 at 24 h (AC50 (uM) modified / 1000) is over 90 µM.

For `CC(=O)O[C@@H]1C[C@H]2CC[C@]1(C)C2(C)C` [Isobornyl acetate], where the note is “AC50 (uM) modified / 1000”, the CC50 at 24 h was over 90 µM.

`Nc1ccccc1C(=O)OCCc1ccccc1` [Phenethyl anthranilate] registered a 50% cytotoxic concentration (CC50) at 24 h (AC50 (uM) modified / 1000, Tox21_110001=Tox21_202175, viability, 1 nM T3 present, 24 h) of over 90 µM.

For `CNC(=O)Oc1ccccc1C1OCCO1` [Dioxacarb], the cytotoxic concentration (CC50) at 24 h (AC50 (uM) modified / 1000, Tox21_110001=Tox21_302420, viability, 1 nM T3 present, 24 h) was over 90 µM.

With `CC(C)c1ccccc1` [Cumene], the CC50 at 24 h (AC50 (uM) modified / 1000) is over 100 µM.

`CC(C)=CC1C(C(=O)OCc2cccc(Oc3ccccc3)c2)C1(C)C` (stereo not drawn) [Phenothrin] showed a CC50 at 24 h (AC50 (uM) modified / 1000) of over 90 µM.

As to `c1ccc2[nH]nnc2c1` [1,2,3-Benzotriazole], for the setting “AC50 (uM) modified / 1000”, the CC50 at 24 h is over 90 µM.

As for `CC(C)(C)C(=O)OCOC(=O)[C@@H]1N2C(=O)[C@@H](NC(=O)[C@H](N)c3ccccc3)[C@H]2SC1(C)C` [Pivampicillin], the CC50 at 24 h (AC50 (uM) modified / 1000) was over 20 µM.

Consider `C[C@H](O)CN(C)C` [(S)-(+)-1-Dimethylamino-2-propanol], for which the CC50 at 24 h (AC50 (uM) modified / 1000) is over 50 µM.

Turning to `CC(=O)CC(=O)Nc1ccc(C)cc1C` [N-(2,4-Dimethylphenyl)-3-oxobutanamide], under “AC50 (uM) modified / 1000”, the CC50 at 24 h was over 90 µM.

Molecule `O=C(OC[C@H]1O[C@](O)(COC(=O)c2cccnc2)[C@@H](OC(=O)c2cccnc2)[C@@H]1OC(=O)c1cccnc1)c1cccnc1` [Nicofuranose] registered a 50% cytotoxic concentration (CC50) at 24 h (AC50 (uM) modified / 1000) of over 50 µM.

In the case of `CC(Cl)C(C)Cl` (stereo not drawn) [2,3-Dichlorobutane], the CC50 at 24 h (AC50 (uM) modified / 1000, Tox21_110001=Tox21_200667, viability, 1 nM T3 present, 24 h) is over 90 µM.

`CCOC(=O)c1ncn2c1CN(C)C(=O)c1c(I)cccc1-2` [Iomazenil]: the CC50 at 24 h (AC50 (uM) modified / 1000) was over 50 µM.

Regarding `COP(=O)(OC)SCn1c(=O)oc2cc(Cl)cnc21` [Azamethiphos], where the note is “AC50 (uM) modified / 1000”, the CC50 at 24 h is over 90 µM.

Where the note is “AC50 (uM) modified / 1000”, `CC(C)CC(=O)CC(C)CC(C)C` (stereo not drawn) [2,6,8-Trimethyl-4-nonanone] gave a CC50 at 24 h of over 90 µM.

The molecule `CCCCCCCCCC=O` [Decanal] returned a CC50 at 24 h (AC50 (uM) modified / 1000) of over 90 µM.
